The values that follow come from article PMC5843756, “The drug interaction potential of daprodustat when coadministered with pioglitazone, rosuvastatin, or trimethoprim in healthy subjects” (Pharmacology Research & Perspectives, 2018).

Where “and” joins values, the source holds several entries; their conditions need not be identical. Equal values may be shown once. Read-outs that look alike come from different tables or passages of the source.

Details of series [1]: method as in Deng et al. 2005. Conditions: pioglitazone with gemfibrozil, strong CYP2C8 inhibitor; ref Deng et al. 2005; cited from earlier work.
A further series in a line: clinical. Conditions: both, human, in vivo; for half-life: median elimination half-life, alone. As for the experimental part:
• Part A was an open‐label, randomized, single oral dose, two‐way cross‐over design that assessed the effects of a single, oral dose of 100 mg daprodustat on the pharmacokinetics of a single, oral dose of 15 mg pioglitazone and a single, oral dose of 10 mg rosuvastatin administered as a cocktail in healthy male and female subjects; • Part B was an open‐label, single sequence, two‐way cross‐over design to assess the effect of steady‐state trimethoprim (200 mg administered orally twice daily for 3 days) on the pharmacokinetics of a single, oral dose of 25 mg daprodustat in healthy, adult male and female subjects.
For Part A, for each of the two treatment periods, subjects remained in the Unit until 48 h postdosing, and were discharged following the last postdose assessment, if no clinically significant abnormalities were noted. Treatment periods were separated by at least a 7‐day washout. […]
Plasma analysis was performed under the management of Bioanalytical Science and Toxicokinetics, Drug Metabolism and Pharmacokinetics (DMPK), and GlaxoSmithKline (GSK). […] Samples were shipped frozen to PPD (Middleton, WI) where plasma samples were analyzed for rosuvastatin, pioglitazone, or daprodustat and predominant metabolites (GSK2391220 (M2), GSK2531403 (M3), GSK2487818 (M4), GSK2506102 (M5), GSK2531398 (M6), and GSK2531401 (M13)).
Pharmacokinetic analysis was performed using Phoenix WinNonLin® 6.3 (A Certara Company, Princeton, N.J). Pharmacokinetic parameters were determined from concentration–time data for pioglitazone, rosuvastatin, daprodustat, and predominant metabolites of daprodustat using standard noncompartmental methods.
Following loge transformation, AUC0‐∞ [defaulting to AUC0‐t if AUC0‐∞ could not be consistently determined] and C max of pioglitazone and rosuvastatin (for Part A) or daprodustat and six predominant metabolites (for Part B) were separately analyzed using a mixed‐effects model with fixed‐effect terms for treatment and period, and subject as a random effect in the model. […]

For series [2] the following is noted: coadministration of gemfibrozil, strong CYP2C8 inhibitor; ref Johnson et al. 2013; cited from earlier work.
A short description of series [3]: Tolerability (adverse events), Parts A and B. Format: in vivo, human. The source says: Tolerability measures included adverse events (AEs), serious adverse events (SAEs), clinical laboratory findings, vital signs, and concurrent medication assessments. An AE was defined as any untoward medical occurrence in a subject or clinical investigation subject, temporally associated with the use of an investigational product, whether or not considered related to the investigational product. […] The investigator or site staff was responsible for detecting, documenting, and reporting events that met the definition of an AE or SAE.

The subject of another series is hemoglobin levels. More on the design: method as in Holdstock et al. 2016a. The settings on record: ref Holdstock et al. 2016a, cited from earlier work.
In a further series the test system is other CYPs. The settings on record: human liver microsomes, up to 100 μmol/L; earlier in vitro studies, no reference given; cited from earlier work.
Another series has as its system OATP1B1. Conditions: read-out: IC50 for inhibition of OATP1B1-mediated transport; in vitro transporter assays; earlier studies, no reference given; cited from earlier work.
Series [4] is described as follows: Part B clinical DDI: plasma pharmacokinetics of daprodustat and predominant metabolites with or without steady-state trimethoprim. The series is classed as in vivo, human. The settings on record: for AUC(0-t) / AUC(0-inf) / Cmax: geometric LS mean (%CV). As for the experimental part:
For Part B, all subjects were administered daprodustat on Day 1 with pharmacokinetic blood sampling over the next 48 h. Starting the morning of Day 3, all subjects were administered 200‐mg trimethoprim twice‐daily for 3 days (i.e., through Day 5). On Day 6 subjects were administered concomitantly daprodustat with 200 mg trimethoprim in the morning, with pharmacokinetic blood sampling occurring over the next 48 h. Trimethoprim continued to be administered at 12 h postdosing on Day 6, and twice daily on Day 7.
Blood samples for PK analyses were collected on Day 1 and Day 6 predose and at 0.25, 0.5, 1, 2, 3, 4, 5, 6, 8, 12, 18, 24, and 48 h postdose.
No formal hypothesis was tested in this study.

In another series the test system is CYP2C8. Conditions: read-out: IC50 for inhibition of CYP2C8; human liver microsomes; earlier in vitro studies, no reference given; cited from earlier work.
Where [5] appears, read: Part B, Regimen C (n = 20) 25 mg daprodustat, Regimen D (n = 19) 25 mg daprodustat + 200 mg trimethoprim BID for 5 days.
Where [6] appears, read: 25 mg daprodustat + trimethoprim vs daprodustat alone.
Setting [7] is: test:reference (with vs without trimethoprim).

On to `CCc1ccc(CCOc2ccc(CC3SC(=O)NC3=O)cc2)nc1` (stereo not drawn) [pioglitazone], for which, in series [1], the “fold increase in AUC0-∞ with gemfibrozil” value is reported as 3.4 fold. In “clinical”, this compound had a half-life of 7.01 h.
Regarding `O=C(O)CNC(=O)C1C(=O)N(C2CCCCC2)C(=O)N(C2CCCCC2)C1=O` [daprodustat], in series [2], the “fold increase in daprodustat AUC with gemfibrozil” value was 19 fold and the “fold increase in daprodustat Cmax with gemfibrozil” value is listed as 4 fold. Moreover, in series [3] (setting [5]), the Aphthous stomatitis was 0 n (%); the Catheter site phlebitis is recorded as 0 n (%); the Constipation was 1 (5) n (%); the Diarrhea was 2 (10%) n (%) and 2 (10) n (%). Also, in [3] (setting [5]), the Nausea is 0 n (%), the Rhinitis is 0 n (%), the Tongue coated is 0 n (%) and the Vomiting is given as 1 (5) n (%). Besides, the Vulvovaginal mycotic infection in series [3] (setting [5]) was 0 n (%). Further, the “proportion of subjects reporting AEs” value in [3] (per regimen, Parts A and B, healthy subjects) was found to be 10%. Moreover, in the series with hemoglobin levels (HDD subjects switched from ESA treatment, 5 mg once daily, 4-week treatment period), the mean hemoglobin levels result is reported as “maintained mean hemoglobin levels”. The “mean increase in hemoglobin” value in the series on hemoglobin levels (NDD patients naïve to ESA treatment, oral 5 mg once daily, over 4 weeks) was 1 gm/dL. Besides, in the series on other CYPs, the “inhibition of other CYPs” value was “no inhibition was observed”. The half-inhibitory concentration (IC50) with OATP1B1 is 6 µM. Also, in series [4] (setting [6]), the “fold increase in AUC with trimethoprim coadministration” value was 1.48 fold, the “fold increase in Cmax with trimethoprim coadministration” value was 1.28 fold, the “increase in plasma AUC with trimethoprim coadministration” value stood at 48% and the “increase in plasma Cmax with trimethoprim coadministration” value is on record as 28%. The AUC(0-t) in series [4] (both sexes, human, oral, reference: 25 mg daprodustat alone, plasma, read-out: AUC0-t, Reference) worked out at 936 ng·h/mL. Besides, in [4] (both sexes, human, oral, reference: 25 mg daprodustat alone, plasma, read-out: AUC0-∞, Reference), the AUC(0-inf) came to 937 ng·h/mL. In addition, the Cmax in series [4] (both sexes, human, oral, reference: 25 mg daprodustat alone, plasma, read-out: Cmax, Reference) is 442 ng/mL. In addition, in series [4] (both sexes, human, oral, test: two 100 mg trimethoprim tablets (steady state) + 25 mg daprodustat, plasma, read-out: AUC0-t, Test), the AUC(0-t) was found to be 1370 ng·h/mL. Moreover, in series [4] (both sexes, human, oral, test: two 100 mg trimethoprim tablets (steady state) + 25 mg daprodustat, plasma, read-out: AUC0-∞, Test), the AUC(0-inf) came out at 1370 ng·h/mL. For the same compound, in [4] (both sexes, human, oral, test: two 100 mg trimethoprim tablets (steady state) + 25 mg daprodustat, plasma, read-out: Cmax, Test), the Cmax worked out at 560 ng/mL. Besides, the half-life in series [4] (both sexes, human, plasma, oral, 25 mg daprodustat alone, read-out: median elimination half-life, alone (converted)) is 3.06 h. The “time of observed peak plasma levels” value in [4] (both treatment periods (with and without steady-state trimethoprim)) was found to be 1 h. For the same compound, in series [4] (setting [7]), the “AUC0-t, Geometric LS mean ratio (90% CI)” value is on record as 1.48 (1.39, 1.59); the “AUC0-∞, Geometric LS mean ratio (90% CI)” value is recorded as 1.48 (1.39, 1.59); the “Cmax, Geometric LS mean ratio (90% CI)” value is given as 1.28 (1.09, 1.51). In the series “clinical” (100 mg), the Cmax was approximately 4.5 µM. In addition, the IC50 with CYP2C8 was 21 µM.
In the series “clinical”, `CC(C)c1nc(N(C)S(C)(=O)=O)nc(-c2ccc(F)cc2)c1/C=C/[C@@H](O)C[C@@H](O)CC(=O)O` [rosuvastatin] had a half-life of 15.6 h.
